This passage reports Normal melting temperature results from the NIST ThermoML archive (doi:10.1016/j.tca.2017.09.024).

SMILES strings stand for the structures. Numbers after ± are expanded uncertainties.

The conditions of this data set: Crystal; DTA.

Take `Fc1ccccc1` [fluorobenzene]: the Normal melting temperature was -41.9 ± 2 °C.
Consider `c1ccccc1` [benzene], for which the Normal melting temperature is 5.6 ± 2 °C.
